Source: the NIST ThermoML archive (doi:10.1021/je050170x)

What was measured:
[1] = for surface tension liquid-gas: Wilhelmy-plate method; for mass density / viscosity: 101.33 kPa, Liquid; for viscosity: Capillary tube (Ostwald / Ubbelohde) method
[2] = refractive index (Na D-line) (dimensionless); details: 101.33 kPa, Liquid, Standard Abbe refractometry

CCCC(=O)OCCC(C)C [3-methylbutyl butanoate]
Details	mass density, [1] [kg/m3]	refractive index, [2]	surface tension liquid-gas, [1] [mN/m]	viscosity, [1] [mPa·s]
288.15 K	867.72	1.41259	25.7	1.317
298.15 K	858.69	1.40815	24.7	1.111
308.15 K	849.62	1.40374	24	0.952
318.15 K	840.55	1.39927	23.1	0.827
328.15 K	831.47	1.39506	22.4	0.724
338.15 K	822.35	1.39055	21.6	0.641
348.15 K	813.19	1.386	20.5	0.573
358.15 K	803.96	1.38139	19.7	0.511

CC(=O)OCCC(C)C [3-methylbutyl ethanoate]
Details	mass density, [1] [kg/m3]	refractive index, [2]	surface tension liquid-gas, [1] [mN/m]	viscosity, [1] [mPa·s]
288.15 K	877.72	1.40288	25.4	0.94
298.15 K	867.91	1.39836	24.3	0.804
308.15 K	858.07	1.39365	23.4	0.704
318.15 K	848.17	1.38895	22.4	0.627
328.15 K	838.22	1.38447	21.6	0.559
338.15 K	828.19	1.37971	20.6	0.484
348.15 K	818.07	1.37487	19.6	0.434
358.15 K	807.85	1.36995	18.7	0.39

CC(=O)OCc1ccccc1 [benzyl ethanoate]
Details	mass density, [1] [kg/m3]	refractive index, [2]	surface tension liquid-gas, [1] [mN/m]	viscosity, [1] [mPa·s]
288.15 K	1060.11	1.50439	37.7	2.53
298.15 K	1050.75	1.49982	36.4	2.056
308.15 K	1041.39	1.49539	35.3	1.703
318.15 K	1032.03	1.49064	34.1	1.432
328.15 K	1022.67	1.48623	33.2	1.229
338.15 K	1013.29	1.48157	32.2	1.059
348.15 K	1003.89	1.47701	31.1	0.941
358.15 K	994.45	1.47233	30.1	0.826

CCC(=O)OCc1ccccc1 [benzyl propanoate]
Details	mass density, [1] [kg/m3]	refractive index, [2]	surface tension liquid-gas, [1] [mN/m]	viscosity, [1] [mPa·s]
288.15 K	1036.86	1.4995	36	2.55
298.15 K	1027.6	1.49498	34.8	2.123
308.15 K	1018.38	1.49074	33.6	1.787
318.15 K	1009.15	1.48611	32.4	1.515
328.15 K	999.93	1.48171	31.6	1.294
338.15 K	990.72	1.47711	30.5	1.114
348.15 K	981.49	1.47252	29.5	0.964
358.15 K	972.25	1.46768	28.5	0.84

CCOC(=O)c1ccccc1O [ethyl 2-hydroxybenzoate]
Details	mass density, [1] [kg/m3]	refractive index, [2]	surface tension liquid-gas, [1] [mN/m]	viscosity, [1] [mPa·s]
288.15 K	1134.72	1.52481	37.5	3.694
298.15 K	1125	1.52022	36.3	2.831
308.15 K	1115.29	1.51573	35.2	2.253
318.15 K	1105.6	1.51116	34.4	1.842
328.15 K	1095.94	1.50646	33.4	1.53
338.15 K	1086.24	1.50191	32	1.305
348.15 K	1076.6	1.49744	31	1.126
358.15 K	1066.83	1.49296	30.2	0.984

CCOC(=O)CC(C)C [ethyl 3-methylbutanoate]
Details	mass density, [1] [kg/m3]	refractive index, [2]	surface tension liquid-gas, [1] [mN/m]	viscosity, [1] [mPa·s]
288.15 K	869.66	1.3988	24.4	0.853
298.15 K	859.78	1.39401	23.5	0.739
308.15 K	849.83	1.38931	22.5	0.642
318.15 K	839.81	1.38458	21.6	0.566
328.15 K	829.71	1.37978	20.7	0.504
338.15 K	819.52	1.37492	19.6	0.452
348.15 K	809.2	1.37002	18.7	0.408
358.15 K	798.73	1.36524	17.6	0.367

CCOC(=O)CC(C)=O [ethyl 3-oxobutanoate]
Details	mass density, [1] [kg/m3]	refractive index, [2]	surface tension liquid-gas, [1] [mN/m]	viscosity, [1] [mPa·s]
288.15 K	1033.92	1.42091	33.3	1.902
298.15 K	1023.45	1.41658	32.3	1.581
308.15 K	–	1.41246	31.1	1.344
318.15 K	–	1.40803	30	1.144
328.15 K	992.26	1.40386	29.1	0.981
338.15 K	981.58	1.39949	28.2	0.847
348.15 K	971.05	1.3951	27	0.736
358.15 K	960.46	1.39061	26.1	0.644

CCOC(=O)c1ccccc1 [ethyl benzoate]
Details	mass density, [1] [kg/m3]	refractive index, [2]	surface tension liquid-gas, [1] [mN/m]	viscosity, [1] [mPa·s]
288.15 K	1050.78	1.5076	35.7	2.444
298.15 K	1041.42	1.50328	34.6	1.971
308.15 K	1032.07	1.49863	33.3	1.623
318.15 K	1022.73	1.49391	32.5	1.368
328.15 K	1013.4	1.48946	31.5	1.169
338.15 K	1004.06	1.4847	30.2	1.016
348.15 K	994.7	1.48004	29.3	0.89
358.15 K	985.31	1.47526	28.4	0.784

CCCCCC(=O)OCC [ethyl hexanoate]
Details	mass density, [1] [kg/m3]	refractive index, [2]	surface tension liquid-gas, [1] [mN/m]	viscosity, [1] [mPa·s]
288.15 K	875.64	1.4095	26.4	1.102
298.15 K	866.29	1.40504	25.4	0.94
308.15 K	856.91	1.40055	24.5	0.814
318.15 K	847.5	1.39597	23.6	0.711
328.15 K	838.05	1.39164	22.7	0.63
338.15 K	828.55	1.38705	21.8	0.562
348.15 K	818.99	1.38239	21	0.504
358.15 K	809.34	1.37768	20	0.452

CCCCCCCC(=O)OCC [ethyl octanoate]
Details	mass density, [1] [kg/m3]	refractive index, [2]	surface tension liquid-gas, [1] [mN/m]	viscosity, [1] [mPa·s]
288.15 K	870.79	1.41991	27.2	1.697
298.15 K	862.15	1.4156	26.4	1.411
308.15 K	853.52	1.41137	25.5	1.193
318.15 K	844.87	1.40702	24.7	1.027
328.15 K	836.21	1.40294	23.8	0.892
338.15 K	827.53	1.39857	22.8	0.784
348.15 K	818.58	1.39418	22	0.694
358.15 K	810.05	1.38974	21.4	0.617
